Values of other authors in patent publication US20140235552A1 (priority 2013, published 2014).
No end group written: not given here.

Key:
gastrin levels = details: 90 mg/day for 6 years or greater; cited from earlier work
[1] = system: patients with type 2 diabetes; details: 12 weeks, cited from earlier work
[2] = system: human pancreatic ductal tissue; details: in vitro, without epidermal growth factor; cited from earlier work
beta cell mass = details: after infusion in rats; cited from earlier work

Cc1c(OCC(F)(F)F)ccnc1C[S+]([O-])c1nc2ccccc2[nH]1 (stereo not shown) [Lansoprazole, 1H-Benzimidazole,2-[[[3-methyl-4-(2,2,2-trifluoroethoxy)-2-pyridinyl]methyl]sulfinyl]-2-[[[3-Methyl-4-(2,2,2-trifluoroethoxy)-2-pyridyl]-methyl]sulfinyl]benzimidazole]
gastrin levels relative to normal (gastrin levels): ~7 fold
safety profile (gastrin levels): sustained safety profile

COc1ccc2nc([S@@+]([O-])Cc3ncc(C)c(OC)c3C)[nH]c2c1 [esomeprazole]
increase in area under the curve (AUC) of gastrin ([1]; 20 type 2 diabetes patients, 40 mg): 9 fold
insulin secretion, glycaemic control or cardiovascular disease biomarkers ([1]; type 2 diabetes, authors' conclusion): did not improve
change in insulin AUC ([1]; type 2 diabetes, inventor's reading of the published data): no decline

gastrin: gastrointestinal hormone demonstrated to result in new beta cell formation (QGPWLEEEEEAYGWMDF; ends and bridges not checked; UniProt P01350 76-92, looked up)
beta cell neogenesis from human pancreatic ductal tissue [2]: induce beta cell neogenesis
beta cell mass (beta cell mass): doubling
